Source: PubChem BioAssay AID256 (DTP/NCI, 2004)
Where “and” joins values, the source holds several entries; their conditions need not be identical. Identical values can stand only once. Inconclusive results and toxic doses are left out.

Test system: CD2F1 mice, L1210 leukemia ip, survival T/C
Assay: NCI In Vivo Anticancer Drug Screen. Data for tumor model L1210 Leukemia (intraperitoneal) in CD2F1 (CDF1) mice
Details: higher = longer survival
Procedure, shortened: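 Antitumor effect is scored in animals hosting a serially transplanted tumor. Values compare compound-dosed animals against vehicle-only controls as a simple quotient.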

[1] = endpoint: mean survival time, dose: 100.0 mg/kg/injection, schedule: Q01DX009 (ip), vehicle: saline with Tween-80

COc1cc(NCc2ccc3nc(N)nc(N)c3c2C)cc(OC)c1OC
T/C (endpoint: mean survival time, dose: 0.62 mg/kg/injection, schedule: Q01DX009 (ip), vehicle: sodium bicarbonate): 102 % of control | T/C (endpoint: mean survival time, dose: 1.25 mg/kg/injection, schedule: Q01DX009 (ip), vehicle: sodium bicarbonate): 102 % of control and 106 % of control | T/C (endpoint: mean survival time, dose: 1.87 mg/kg/injection, schedule: Q04DX003 (ip), vehicle: sodium bicarbonate): 106 % of control | T/C (endpoint: mean survival time, dose: 2.5 mg/kg/injection, schedule: Q01DX009 (ip), vehicle: sodium bicarbonate): 110 % of control and 112 % of control | T/C (endpoint: mean survival time, dose: 3.11 mg/kg/injection, schedule: Q01DX009 (ip), vehicle: other): 118 % of control | T/C (endpoint: mean survival time, dose: 3.75 mg/kg/injection, schedule: Q04DX003 (ip), vehicle: sodium bicarbonate): 96 % of control | T/C (endpoint: mean survival time, dose: 5.0 mg/kg/injection, schedule: Q01DX009 (ip), vehicle: sodium bicarbonate): 121 % of control and 110 % of control | T/C (endpoint: mean survival time, dose: 5.18 mg/kg/injection, schedule: Q01DX009 (ip), vehicle: other): 121 % of control | T/C (endpoint: mean survival time, dose: 5.27 mg/kg/injection, schedule: Q01DX009 (ip), vehicle: Klucel (hydroxypropylcellulose) (HPC)): 122 % of control | T/C (endpoint: mean survival time, dose: 7.05 mg/kg/injection, schedule: Q01DX009 (ip), vehicle: water): 117 % of control | T/C (endpoint: mean survival time, dose: 7.5 mg/kg/injection, schedule: Q04DX003 (ip), vehicle: sodium bicarbonate): 110 % of control | T/C (endpoint: mean survival time, dose: 10.5 mg/kg/injection, schedule: Q01DX009 (ip), vehicle: water): 123 % of control | T/C (endpoint: mean survival time, dose: 15.0 mg/kg/injection, schedule: Q04DX003 (ip), vehicle: sodium bicarbonate): 112 % of control | T/C (endpoint: mean survival time, dose: 17.8 mg/kg/injection, schedule: Q01DX009 (ip), vehicle: Klucel (hydroxypropylcellulose) (HPC)): 174 % of control | T/C (endpoint: mean survival time, dose: 20.0 mg/kg/injection, schedule: Q01DX009 (ip), vehicle: sodium bicarbonate): 156 % of control and 160 % of control | T/C (endpoint: mean survival time, dose: 24.0 mg/kg/injection, schedule: Q01DX009 (ip), vehicle: other): 152 % of control | T/C (endpoint: mean survival time, dose: 26.7 mg/kg/injection, schedule: Q01DX009 (ip), vehicle: Klucel (hydroxypropylcellulose) (HPC)): 191 % of control | T/C (endpoint: mean survival time, dose: 30.0 mg/kg/injection, schedule: Q04DX003 (ip), vehicle: sodium bicarbonate): 114 % of control | T/C (endpoint: mean survival time, dose: 40.0 mg/kg/injection, schedule: Q01DX009 (ip), vehicle: Klucel (hydroxypropylcellulose) (HPC)): 216 % of control | T/C (endpoint: mean survival time, dose: 40.0 mg/kg/injection, schedule: Q01DX009 (ip), vehicle: other): 167 % of control | T/C (endpoint: mean survival time, dose: 40.0 mg/kg/injection, schedule: Q01DX009 (ip), vehicle: sodium bicarbonate): 110 % of control | T/C (endpoint: mean survival time, dose: 60.0 mg/kg/injection, schedule: Q01DX009 (ip), vehicle: Klucel (hydroxypropylcellulose) (HPC)): 122 % of control | T/C (endpoint: mean survival time, dose: 80.0 mg/kg/injection, schedule: Q01DX009 (ip), vehicle: water): 151 % of control | T/C (endpoint: mean survival time, dose: 90.0 mg/kg/injection, schedule: Q01DX009 (ip), vehicle: Klucel (hydroxypropylcellulose) (HPC)): 116 % of control | T/C (endpoint: median survival time, dose: 2.5 mg/kg/injection, schedule: Q01DX009 (ip), vehicle: sodium bicarbonate): 109 % of control | T/C (endpoint: median survival time, dose: 5.0 mg/kg/injection, schedule: Q01DX009 (ip), vehicle: Klucel (hydroxypropylcellulose) (HPC)): 119 % of control | T/C (endpoint: median survival time, dose: 5.0 mg/kg/injection, schedule: Q01DX009 (ip), vehicle: sodium bicarbonate): 117 % of control and 124 % of control | T/C (endpoint: median survival time, dose: 6.25 mg/kg/injection, schedule: Q01DX009 (ip), vehicle: water): 124 % of control | T/C (endpoint: median survival time, dose: 7.5 mg/kg/injection, schedule: Q01DX005 (ip), vehicle: Klucel (hydroxypropylcellulose) (HPC)): 150 % of control | T/C (endpoint: median survival time, dose: 10.0 mg/kg/injection, schedule: Q01DX009 (ip), vehicle: Klucel (hydroxypropylcellulose) (HPC)): 151 % of control | T/C (endpoint: median survival time, dose: 15.0 mg/kg/injection, schedule: Q01DX005 (ip), vehicle: Klucel (hydroxypropylcellulose) (HPC)): 167 % of control | T/C (endpoint: median survival time, dose: 18.0 mg/kg/injection, schedule: Q01DX009 (ip), vehicle: distilled water + Tween-80): 153 % of control | T/C (endpoint: median survival time, dose: 20.0 mg/kg/injection, schedule: Q01DX009 (ip), vehicle: Klucel (hydroxypropylcellulose) (HPC)): 172 % of control | T/C (endpoint: median survival time, dose: 20.0 mg/kg/injection, schedule: Q01DX009 (ip), vehicle: sodium bicarbonate): 152 % of control and 157 % of control | T/C (endpoint: median survival time, dose: 25.0 mg/kg/injection, schedule: Q01DX009 (ip), vehicle: water): 157 % of control | T/C (endpoint: median survival time, dose: 27.0 mg/kg/injection, schedule: Q01DX009 (ip), vehicle: distilled water + Tween-80): 165 % of control | T/C (endpoint: median survival time, dose: 30.0 mg/kg/injection, schedule: Q01DX005 (ip), vehicle: Klucel (hydroxypropylcellulose) (HPC)): 166 % of control and 175 % of control | T/C (endpoint: median survival time, dose: 40.0 mg/kg/injection, schedule: Q01DX009 (ip), vehicle: distilled water + Tween-80): 158 % of control and 168 % of control | T/C (endpoint: median survival time, dose: 40.0 mg/kg/injection, schedule: Q01DX009 (ip), vehicle: sodium bicarbonate): 168 % of control and 181 % of control | T/C (endpoint: median survival time, dose: 44.0 mg/kg/injection, schedule: Q01DX009 (ip), vehicle: water): 154 % of control | T/C (endpoint: median survival time, dose: 50.0 mg/kg/injection, schedule: Q01DX009 (ip), vehicle: water): 157 % of control and 165 % of control | T/C (endpoint: median survival time, dose: 60.0 mg/kg/injection, schedule: Q01DX005 (ip), vehicle: Klucel (hydroxypropylcellulose) (HPC)): 184 % of control and 185 % of control | T/C (endpoint: median survival time, dose: 60.0 mg/kg/injection, schedule: Q01DX009 (ip), vehicle: distilled water + Tween-80): 160 % of control and 182 % of control | T/C (endpoint: median survival time, dose: 80.0 mg/kg/injection, schedule: Q01DX009 (ip), vehicle: Klucel (hydroxypropylcellulose) (HPC)): 112 % of control | T/C (endpoint: median survival time, dose: 90.0 mg/kg/injection, schedule: Q01DX009 (ip), vehicle: distilled water + Tween-80): 118 % of control | T/C (endpoint: median survival time, dose: 100.0 mg/kg/injection, schedule: Q01DX009 (ip), vehicle: water): 173 % of control and 184 % of control | T/C (endpoint: median survival time, dose: 120.0 mg/kg/injection, schedule: Q01DX005 (ip), vehicle: Klucel (hydroxypropylcellulose) (HPC)): 236 % of control

OCC(O)COCc1ccccc1 (stereo unspecified)
T/C (endpoint: mean survival time, dose: 100.0 mg/kg/injection, schedule: Q01DX009 (ip), vehicle: saline): 94 % of control | T/C (endpoint: mean survival time, dose: 200.0 mg/kg/injection, schedule: Q01DX009 (ip), vehicle: saline): 94 % of control | T/C (endpoint: mean survival time, dose: 400.0 mg/kg/injection, schedule: Q01DX009 (ip), vehicle: saline): 96 % of control

CCCC(C)(C)c1ccc(Cl)cc1
T/C (endpoint: mean survival time, dose: 50.0 mg/kg/injection, schedule: Q01DX009 (ip), vehicle: saline with Tween-80): 96 % of control | T/C [1]: 104 % of control | T/C (endpoint: mean survival time, dose: 200.0 mg/kg/injection, schedule: Q01DX009 (ip), vehicle: saline with Tween-80): 104 % of control

c1ccc(-c2cc3cc4ccccc4cn3c2)cc1
T/C (endpoint: median survival time, dose: 50.0 mg/kg/injection, schedule: Q01DX009 (ip), vehicle: saline with Tween-80): 104 % of control | T/C (endpoint: median survival time, dose: 100.0 mg/kg/injection, schedule: Q01DX009 (ip), vehicle: saline with Tween-80): 100 % of control | T/C (endpoint: median survival time, dose: 200.0 mg/kg/injection, schedule: Q01DX009 (ip), vehicle: saline with Tween-80): 108 % of control | T/C (endpoint: median survival time, dose: 400.0 mg/kg/injection, schedule: Q01DX009 (ip), vehicle: saline with Tween-80): 113 % of control | T/C (endpoint: median survival time, dose: 800.0 mg/kg/injection, schedule: Q01DX009 (ip), vehicle: saline with Tween-80): 110 % of control

CCOC(=O)C(C)(C(=O)OCC)n1cnc2c1c(=O)n(C)c(=O)n2C
T/C (endpoint: mean survival time, dose: 100.0 mg/kg/injection, schedule: Q01DX005 (ip), vehicle: distilled water + Tween-80): 100 % of control | T/C (endpoint: mean survival time, dose: 200.0 mg/kg/injection, schedule: Q01DX005 (ip), vehicle: distilled water + Tween-80): 102 % of control | T/C (endpoint: mean survival time, dose: 400.0 mg/kg/injection, schedule: Q01DX005 (ip), vehicle: distilled water + Tween-80): 107 % of control

COc1ccc(OC)c(NC(=O)NNC(=O)c2ccc(Cl)cc2)c1
T/C [1]: 90 % of control

NC(=O)c1ncc[nH]c1=O
T/C (endpoint: mean survival time, dose: 100.0 mg/kg/injection, schedule: Q04DX003 (ip), vehicle: saline with Tween-80): 103 % of control | T/C (endpoint: mean survival time, dose: 200.0 mg/kg/injection, schedule: Q04DX003 (ip), vehicle: saline with Tween-80): 91 % of control

O=C(Nc1ccc(F)c(Cl)c1)Oc1ccc(OCc2ccccc2)cc1
T/C (endpoint: mean survival time, dose: 50.0 mg/kg/injection, schedule: Q01DX009 (ip), vehicle: Klucel (hydroxypropylcellulose) (HPC)): 87 % of control | T/C (endpoint: mean survival time, dose: 100.0 mg/kg/injection, schedule: Q01DX009 (ip), vehicle: Klucel (hydroxypropylcellulose) (HPC)): 98 % of control | T/C (endpoint: mean survival time, dose: 200.0 mg/kg/injection, schedule: Q01DX009 (ip), vehicle: Klucel (hydroxypropylcellulose) (HPC)): 93 % of control

C1CC[N-]CC1.C1CC[N-]CC1.C1CC[N-]CC1.C1CC[N-]CC1.N#C[S-].N#C[S-].[Ni]
T/C (endpoint: mean survival time, dose: 10.0 mg/kg/injection, schedule: Q04DX003 (ip), vehicle: Klucel (hydroxypropylcellulose) (HPC)): 90 % of control | T/C (endpoint: mean survival time, dose: 20.0 mg/kg/injection, schedule: Q04DX003 (ip), vehicle: Klucel (hydroxypropylcellulose) (HPC)): 91 % of control | T/C (endpoint: mean survival time, dose: 40.0 mg/kg/injection, schedule: Q04DX003 (ip), vehicle: Klucel (hydroxypropylcellulose) (HPC)): 96 % of control

CSc1ccccc1N=Cc1cc(Cl)ccc1O
T/C (endpoint: mean survival time, dose: 25.0 mg/kg/injection, schedule: Q01DX001 (ip), vehicle: saline with Tween-80): 96 % of control | T/C (endpoint: mean survival time, dose: 50.0 mg/kg/injection, schedule: Q01DX001 (ip), vehicle: saline with Tween-80): 96 % of control | T/C (endpoint: mean survival time, dose: 100.0 mg/kg/injection, schedule: Q01DX001 (ip), vehicle: saline with Tween-80): 96 % of control

CC(C)C(=O)OCC(C)(C)COC(=O)C(C)C
T/C (endpoint: mean survival time, dose: 100.0 mg/kg/injection, schedule: Q04DX003 (ip), vehicle: saline): 87 % of control | T/C (endpoint: mean survival time, dose: 200.0 mg/kg/injection, schedule: Q04DX003 (ip), vehicle: saline): 87 % of control | T/C (endpoint: mean survival time, dose: 400.0 mg/kg/injection, schedule: Q04DX003 (ip), vehicle: saline): 94 % of control
